Reference: patent publication US10865208B2, “ATG7 inhibitors and the uses thereof” (Millennium Pharmaceuticals, Inc., priority 2016, dated 2020)
pIC50: −log10 of the molar value.

Target: recombinant human His-ATG7 enzyme (Homo sapiens (Human), UniProt O95352)
Assay: ATG7 Enzyme Assay (HTRF/FRET, ATG3-GST and Flag-Gabarap)
Type: biochemical
Conditions: for inhibition at 0.111 µM: Concentration 0.111 μM
How it was run: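 HTRF read-out after 2 h at 24° C, using Eu-cryptate anti-Flag and XL-APC anti-GST antibodies in an EDTA stop buffer. The preceding 105 min, 24° C reaction (pH 7.5) held 10 μM ATP, 5 nM each ATG3-GST and Flag-Gabarap, and 0.15 nM human His-ATG7. Values are IC50 or percent inhibition at one concentration.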

Sequence of recombinant human His-ATG7 enzyme (O95352 whole entry): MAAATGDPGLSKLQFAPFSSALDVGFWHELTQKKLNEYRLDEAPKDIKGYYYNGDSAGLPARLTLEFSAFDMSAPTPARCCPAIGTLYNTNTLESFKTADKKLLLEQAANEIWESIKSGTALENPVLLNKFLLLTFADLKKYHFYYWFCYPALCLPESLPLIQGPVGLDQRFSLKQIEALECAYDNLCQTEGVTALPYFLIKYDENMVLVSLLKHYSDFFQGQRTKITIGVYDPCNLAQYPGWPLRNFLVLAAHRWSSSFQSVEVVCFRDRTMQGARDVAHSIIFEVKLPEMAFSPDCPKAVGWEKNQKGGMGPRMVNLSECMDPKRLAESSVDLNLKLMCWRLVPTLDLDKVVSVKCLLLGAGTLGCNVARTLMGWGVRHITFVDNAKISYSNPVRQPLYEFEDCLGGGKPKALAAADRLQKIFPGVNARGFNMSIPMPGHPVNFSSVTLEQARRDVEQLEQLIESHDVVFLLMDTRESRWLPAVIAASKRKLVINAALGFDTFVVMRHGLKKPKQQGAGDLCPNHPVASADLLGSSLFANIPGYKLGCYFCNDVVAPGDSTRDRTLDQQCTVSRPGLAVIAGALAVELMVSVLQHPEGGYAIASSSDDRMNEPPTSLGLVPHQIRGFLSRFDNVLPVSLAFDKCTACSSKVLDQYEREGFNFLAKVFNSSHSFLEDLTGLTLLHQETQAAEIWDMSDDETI

pIC50 | inhibition at 0.123 µM (Concentration 0.123 μM, read-out: Percent Inhibition) | inhibition at 0.111 µM (read-out: Percent Inhibition) | SMILES
6.30 to 7.00 | 35% | – | COc1nn([C@H]2C[C@H](O)[C@@H](COS(N)(=O)=O)O2)c2ncnc(N)c12 [Compound I-190, [(2R,3S,5R)-5-(4-amino-3-methoxy-1H-pyrazolo[3,4-d]pyrimidin-1-yl)-3-hydroxytetrahydrofuran-2-yl]methyl Sulfamate]
7.00 to 7.30 | – | 63% | Cc1ccc(F)c(Sc2nn([C@H]3C[C@H](O)[C@@H](COS(N)(=O)=O)O3)c3ncnc(N)c23)c1 [Compound I-191, [(2R,3S,5R)-5-{4-amino-3-[(2-fluoro-5-methylphenyl)sulfanyl]-1H-pyrazolo[3,4-d]pyrimidin-1-yl}-3-hydroxytetrahydrofuran-2-yl]methyl sulfamate]
7.00 to 7.30 | – | 61% | Nc1ncnc2c1c(I)nn2[C@H]1C[C@H](O)[C@@H](COS(N)(=O)=O)O1 [Compound I-192, [(2R,3S,5R)-5-(4-amino-3-iodo-1H-pyrazolo[3,4-d]pyrimidin-1-yl)-3-hydroxytetrahydrofuran-2-yl]methyl Sulfamate]
6.30 to 7.00 | – | 46% | Cc1ccc(Sc2nn([C@H]3C[C@H](O)[C@@H](COS(N)(=O)=O)O3)c3ncnc(N)c23)cc1 [Compound I-193, [(2R,3S,5R)-5-{4-amino-3-[(4-methylphenyl)sulfanyl]-1H-pyrazolo[3,4-d]pyrimidin-1-yl}-3-hydroxytetrahydrofuran-2-yl]methyl sulfamate]
7.30 to 7.70 | – | 79% | Nc1ncnc2c1c(Sc1ccccn1)nn2[C@H]1C[C@H](O)[C@@H](COS(N)(=O)=O)O1 [Compound I-194, {(2R,3S,5R)-5-[4-amino-3-(pyridin-2-ylsulfanyl)-1H-pyrazolo[3,4-d]pyrimidin-1-yl]-3-hydroxytetrahydrofuran-2-yl}methyl sulfamate]
7.00 to 7.30 | – | 53% | Nc1ncnc2c1c(OC(F)F)nn2[C@H]1C[C@H](O)[C@@H](COS(N)(=O)=O)O1 [Compound I-195, {(2R,3S,5R)-5-[4-amino-3-(difluoromethoxy)-1H-pyrazolo[3,4-d]pyrimidin-1-yl]-3-hydroxytetrahydrofuran-2-yl}methyl Sulfamate]
7.00 to 7.30 | – | 65% | Cc1ccc(Sc2nn([C@H]3C[C@H](O)[C@@H](COS(N)(=O)=O)O3)c3ncnc(N)c23)cc1C [Compound I-196, [(2R,3S,5R)-5-{4-amino-3-[(3,4-dimethylphenyl)sulfanyl]-1H-pyrazolo[3,4-d]pyrimidin-1-yl}-3-hydroxytetrahydrofuran-2-yl]methyl sulfamate]
6.30 to 7.00 | – | 45% | Nc1ncnc2c1c(Sc1ccc(OC(F)(F)F)cc1)nn2[C@H]1C[C@H](O)[C@@H](COS(N)(=O)=O)O1 [Compound I-197, [(2R,3S,5R)-5-(4-amino-3-{[4-(trifluoromethoxy)phenyl]sulfanyl}-1H-pyrazolo[3,4-d]pyrimidin-1-yl)-3-hydroxytetrahydrofuran-2-yl]methyl sulfamate]
6.30 to 7.00 | – | 42% | Nc1ncnc2c1c(Sc1cccc(OC(F)(F)F)c1)nn2[C@H]1C[C@H](O)[C@@H](COS(N)(=O)=O)O1 [Compound I-198, [(2R,3S,5R)-5-(4-amino-3-{[3-(trifluoromethoxy)phenyl]sulfanyl}-1H-pyrazolo[3,4-d]pyrimidin-1-yl)-3-hydroxytetrahydrofuran-2-yl]methyl sulfamate]
7.30 to 7.70 | – | 74% | COc1cccc(Sc2nn([C@H]3C[C@H](O)[C@@H](COS(N)(=O)=O)O3)c3ncnc(N)c23)c1 [Compound I-199, [(2R,3S,5R)-5-{4-amino-3-[(3-methoxyphenyl)sulfanyl]-1H-pyrazolo[3,4-d]pyrimidin-1-yl}-3-hydroxytetrahydrofuran-2-yl]methyl sulfamate]
